Here are results for two compounds from patent US8822413B2, “Bifunctional hormone having alpha-MSH activity and natriuretic peptide activity and uses thereof” (Theratechnologies Inc., priority 2007, dated 2014).

One test has as its system normal men. Conditions: infusion in normal men; cited from earlier work.
For the next test, the target named is T1, ANP receptor (Sus scrofa, UniProt F1SFW3).
T1 construct: ANP receptor-expressing LLC-PK1 cells; endogenous in cells; host or cells: LLC-PK1 cells
T1 sequence (F1SFW3 29-1057): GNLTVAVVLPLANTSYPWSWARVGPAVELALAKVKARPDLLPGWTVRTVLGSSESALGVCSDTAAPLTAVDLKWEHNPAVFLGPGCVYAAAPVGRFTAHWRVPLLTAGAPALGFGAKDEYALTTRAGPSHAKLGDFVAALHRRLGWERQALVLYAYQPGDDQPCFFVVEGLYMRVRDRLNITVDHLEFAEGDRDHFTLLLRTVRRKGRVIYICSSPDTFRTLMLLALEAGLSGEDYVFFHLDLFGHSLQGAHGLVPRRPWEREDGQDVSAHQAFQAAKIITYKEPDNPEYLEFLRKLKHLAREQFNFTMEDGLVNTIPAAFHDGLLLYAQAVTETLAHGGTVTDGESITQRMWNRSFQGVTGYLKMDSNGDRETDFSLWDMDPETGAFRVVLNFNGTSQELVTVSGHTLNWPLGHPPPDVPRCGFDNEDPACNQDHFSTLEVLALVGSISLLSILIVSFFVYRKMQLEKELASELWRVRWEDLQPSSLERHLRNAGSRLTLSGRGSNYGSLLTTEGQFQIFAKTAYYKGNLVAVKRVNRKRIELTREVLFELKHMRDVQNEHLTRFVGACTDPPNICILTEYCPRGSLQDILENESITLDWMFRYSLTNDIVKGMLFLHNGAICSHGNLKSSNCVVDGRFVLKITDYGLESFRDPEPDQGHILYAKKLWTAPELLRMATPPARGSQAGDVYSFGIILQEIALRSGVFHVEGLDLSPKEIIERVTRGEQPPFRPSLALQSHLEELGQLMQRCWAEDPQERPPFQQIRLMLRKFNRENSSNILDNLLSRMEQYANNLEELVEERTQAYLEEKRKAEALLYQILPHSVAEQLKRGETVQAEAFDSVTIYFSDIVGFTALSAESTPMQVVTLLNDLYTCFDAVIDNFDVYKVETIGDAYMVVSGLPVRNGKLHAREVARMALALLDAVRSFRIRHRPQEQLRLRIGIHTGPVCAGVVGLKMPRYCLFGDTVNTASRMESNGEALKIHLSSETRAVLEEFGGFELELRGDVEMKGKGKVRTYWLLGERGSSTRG
The test is described as follows: cGMP production in ANP receptor-expressing LLC-PK1 cells. It is filed as cell-based. Conditions: 30 min stimulation, 10^-6M through 10^-12M, NR = No response detected. As to the method:
The bifunctional hormone was tested on ANP receptor-expressing LLC-PK1 cells and on MCR1 receptor-expressing B16-F1 cells. Both cell types were cultured 24 hours before the stimulation, in 96-well plates, at a concentration of 1.0×10^5 cells/ml. Before stimulation, cells were starved 2 hours in DPBS only and incubated 10 min in assay buffer (DPBS containing 20 mM HEPES, 0.1% BSA and 500 μM IBMX). The dose response curve of the bifunctional hormone was done for 30 minutes with concentrations of 10^−6M through 10^−12M. Supernatant was collected and cAMP (B16-F1) or cGMP (LLC-PK1) was measured with a radiolabeled kit from GE Healthcare Company.

Bridge positions count the residues as written; N and C are the ends. Peptide text beside a SMILES is read from it.

For the compound “S-P-K-M-V-Q-G-S-G-[C-P-G-R-K-M-D-R-I-S-S-S-S-G-L-G-C]-K-V-L-R-R-H [BNP]”, in the test with normal men, the “increase in sodium excretion” value is 2 fold; the “reduction in plasma renin, angiotensin II and aldosterone secretion” value is recorded as 50%. As to `CC[C@H](C)[C@@H]1NC(=O)[C@H](CCCNC(=N)N)NC(=O)[C@H](CC(=O)O)NC(=O)[C@H](CCSC)NC(=O)[C@H](CCCNC(=N)N)NC(=O)CNC(=O)CNC(=O)[C@H](Cc2ccccc2)NC(=O)[C@@H](NC(=O)[C@H](CO)NC(=O)[C@H](CO)NC(=O)[C@H](CCCNC(=N)N)NC(=O)[C@H](CCCNC(=N)N)NC(=O)CNC(=O)[C@H](Cc2c[nH]c3ccccc23)NC(=O)[C@H](CCCNC(=N)N)NC(=O)[C@H](Cc2ccccc2)NC(=O)[C@H](Cc2c[nH]cn2)NC(=O)[C@H](CCC(=O)O)NC(=O)[C@@H](N)CCSC)CSSC[C@@H](C(=O)N[C@@H](CC(N)=O)C(=O)N[C@@H](CO)C(=O)N[C@@H](Cc2ccccc2)C(=O)N[C@@H](CCCNC(=N)N)C(=O)N[C@@H](Cc2ccc(O)cc2)C(N)=O)NC(=O)CNC(=O)[C@H](CC(C)C)NC(=O)CNC(=O)[C@H](CO)NC(=O)[C@H](CCC(N)=O)NC(=O)[C@H](C)NC(=O)CNC1=O` [SEQ ID NO: 36, M-E-H-F-R-W-G-R-R-S-S-[C-F-G-G-R-M-D-R-I-G-A-Q-S-G-L-G-C]-N-S-F-R-Y-NH2] (H-MEHFRWGRRSSCFGGRMDRIGAQSGLGCNSFRY-NH2; disulfide 12-28), the EC50 (commonly the concentration at which the effect is half-maximal) on ANP receptor amounted to 33.1 nM.
